Results reported in patent publication US10723726B2, “Solid forms of (Z)-4-(5-((3-benzyl-4-oxo-2-thioxothiazolidin-5-ylidene)methyl)furan-2-yl)benzoic acid” (GB006, INC., priority 2015, dated 2020).
Counter-ions that a name gives are not always drawn.

Test: in vivo
Details: male
Procedure: Test system: Healthy Beagle dog weighing 10-12 kg (age 10 months), males were used for the study. Crossover design was adopted for the experiments wherein 03 dogs were used in the study for oral and intravenous administration. The animals were housed stainless steel cage provided with a hopper to hold pellet feed and a separate water hopper. Temperature and humidity was maintained at 23±5° C. and 30-70%, respectively. The illumination was controlled to give a sequence of 12 h light and 12 h dark cycle. All the animals were adapted to the experimental conditions for at least 5 days prior to dosing. All animals were provided with Pedigree™ standard pellet feed, except for 10 to 12 h before treatment and 4 h after the drug administration. Water was provided ad libidum.
Formulation and drug administration: 251.02 mg of test item was transferred in to a clean mortar. Test item was ground uniformly using pestle. 1.235 ml of Tween 80 was added and the material was mixed. A small quantity of 0.5% (w/v) methylcellulose in water was added and the mixture was triturated. 0.5% methyl cellulose was added to make a final volume of 190 ml. Finally the above formulation was transferred to a pre-labeled beaker and sonicated for five minutes. Suspension was dosed under stirring conditions by placing on a magnetic stirrer.
The dose formulation of LA-1.choline was administered by oral gavage using a feeding gavage tube. The required volume of dose formulation (5 ml/kg body weight) was draw up into a graduated syringe. The dog was properly restrained with the help of another person so as to restrict movement. The feeding tube was inserted slowly in the mouth through the space between cheek and the teeth towards esophagus to the stomach. Proper placement of tube was confirmed by dipping the outside end of tube in a container with water and looking for air bubbles. Absence of air bubbles confirmed the location of tube in the stomach. The required dose volume of LA-1.choline suspension was slowly administered through the feeding tube. Air was pushed through at the end to ensure empting of the tube. The tube was slowly taken out and discarded.
Intravenous drug formulation: Accurately weighed 27.49 mg of test item was transferred in to the clean tube. A volume of 0.417 mL DMSO was added and mixed until the test dissolves completely. A volume 0.417 mL of Solutol:alcohol (1:1, v/v) was added and mixed, to this, 7.496 mL of normal saline was added and vortexed. Finally, the above formulation was used for dosing.
The required volume of dose formulation (0.2 ml/kg body weight) of LA-1.choline was drawn up into a graduated syringe. Air bubbles were removed from the syringe before dosing. The dog was restrained in the standing position. The upper portion of injection site of cephalic vein was compressed and the needle of the butterfly vein catheter sized 22G was slowly inserted in the vein. Once blood reached the end of the catheter tube, it was connected to the syringe. The dose formulation was immediately injected slowly. At the end of administration, approximately 0.5 mL of normal saline was injected via catheter to ensure the required dose volume was administrated. Last, the needle was removed.
Sample collection: Post-dosing ˜1.5 ml of blood sample from each dog for the following time points 0.25, 0.5, 1, 1.5, 2, 3, 5, 8, 10 and 24 h was collected from the jugular vein into K2EDTA containing pre-labeled vacutainer centrifuge tubes. Plasma was obtained by centrifuging blood samples at 2500 g for 10 min. under refrigeration (2-4° C.) within 0.5 h of sampling. The obtained plasma samples were transferred into pre-labeled microcentrifuge tubes (approximately ˜300 μl) and stored at or below −70±10° C. The sample labels include details such as study number, test item code and dose group and/or day of sampling, animal number, time point.
Extraction procedure: The plasma separated from the whole blood was used for bio-analysis.

[1] = Beagle, dog, iv, 0.5 mg/kg, Plasma concentration
[2] = Beagle, dog, po, 5 mg/kg, Mean conc.
[3] = Beagle, dog, po, 5 mg/kg, Plasma concentration
[4] = beagle, dog, iv, 0.5 mg/kg, Mean conc.
[5] = beagle, dog, iv, 0.5 mg/kg, Plasma concentration
[6] = beagle, dog, po, 5 mg/kg, Plasma concentration

O=C(O)c1ccc(-c2ccc(/C=C3\SC(=S)N(Cc4ccccc4)C3=O)o2)cc1 [LA1 choline salt]
concentration at 0.25 h [1]: 723 ng/mL | concentration at 0.5 h [1]: 501 ng/mL | concentration at 1 h [1]: 397 ng/mL | concentration at 2 h [1]: 203 ng/mL | concentration at 3 h [1]: 265 ng/mL | concentration at 5 h [1]: 67.7 ng/mL | concentration at 8 h [1]: 44.4 ng/mL | concentration at 10 h [1]: 19.8 ng/mL | Plasma concentration (Beagle, dog, po, 5 mg/kg, 0.5 h): 2776 ng/mL | Plasma concentration (Beagle, dog, po, 5 mg/kg, 1 h): 2706 ng/mL | Plasma concentration (Beagle, dog, po, 5 mg/kg, 2 h): 2055 ng/mL | Plasma concentration (Beagle, dog, po, 5 mg/kg, 3 h): 2510 ng/mL | Plasma concentration (Beagle, dog, po, 5 mg/kg, 5 h): 429 ng/mL | concentration at 0.25 h [2]: 1100 ng/mL | concentration at 0.5 h [2]: 1880 ng/mL | concentration at 1 h [2]: 1890 ng/mL | concentration at 2 h [2]: 1520 ng/mL | concentration at 3 h [2]: 1960 ng/mL | concentration at 5 h [2]: 414 ng/mL | concentration at 8 h [2]: 150 ng/mL | concentration at 10 h [2]: 128 ng/mL | concentration at 24 h [2]: 16.9 ng/mL | concentration at 0.5 h [3]: 1870 ng/mL | concentration at 1 h [3]: 1660 ng/mL | concentration at 2 h [3]: 1480 ng/mL | concentration at 3 h [3]: 1810 ng/mL | concentration at 5 h [3]: 442 ng/mL | Dog Cl (beagle): 3.9 mL/min/kg | bioavailability (beagle, dog, Absolute oral bioavailability): 50.6% | clearance (beagle, dog, Dog Cl (ml/min/kg)): 3.92 mL/min/kg | bioavailability (beagle, dog, Dog F % (absolute oral bioavailability)): 43.4% | AUC0-t (beagle, dog, iv, 0.5 mg/kg): 1330 ng·h/mL | AUC(0-inf) (beagle, dog, iv, 0.5 mg/kg): 1350 ng·h/mL | Cmax (beagle, dog, iv, 0.5 mg/kg): 2040 ng/mL | Vd (beagle, dog, iv, 0.5 mg/kg): 0.00072 L | Plasma concentration (beagle, dog, iv, 0.5 mg/kg, 0.25 h): 843 ng/mL | Plasma concentration (beagle, dog, iv, 0.5 mg/kg, 0.5 h): 548 ng/mL | Plasma concentration (beagle, dog, iv, 0.5 mg/kg, 1 h): 405 ng/mL | clearance (beagle, dog, iv, 0.5 mg/kg, Cl): 0.0065 mL/min | half-life (beagle, dog, iv, 0.5 mg/kg, Half life): 2.15 h | concentration at 0.25 h [4]: 851 ng/mL | concentration at 0.5 h [4]: 641 ng/mL | concentration at 1 h [4]: 508 ng/mL | concentration at 2 h [4]: 297 ng/mL | concentration at 3 h [4]: 421 ng/mL | concentration at 5 h [4]: 109 ng/mL | concentration at 8 h [4]: 44.1 ng/mL | concentration at 10 h [4]: 27.6 ng/mL | concentration at 0.25 h [5]: 987 ng/mL | concentration at 0.5 h [5]: 874 ng/mL | concentration at 1 h [5]: 721 ng/mL | concentration at 24 h [5]: 15.8 ng/mL | AUC0-t (beagle, dog, po, 3 mg/kg): 2570 ng·h/mL | AUC(0-inf) (beagle, dog, po, 3 mg/kg): 2690 ng·h/mL | Cmax (beagle, dog, po, 3 mg/kg): 685 ng/mL | Tmax (beagle, dog, po, 3 mg/kg): 4 h | half-life (beagle, dog, po, 3 mg/kg, Half life): 2.11 h | Vdss (beagle, dog, po, 5 mg/kg): 0.83 L/kg | peak concentration (beagle, dog, po, 5 mg/kg): 2068 ng/mL | t1/2 (hr), oral half-life (beagle, dog, po, 5 mg/kg): 3.41 h | time of peak concentration post dose (beagle, dog, po, 5 mg/kg): 1.5 h | concentration at 0.5 h [6]: 999 ng/mL | concentration at 1 h [6]: 1310 ng/mL | concentration at 2 h [6]: 1020 ng/mL | concentration at 3 h [6]: 1560 ng/mL | concentration at 5 h [6]: 370 ng/mL | concentration at 8 h [6]: 107 ng/mL | concentration at 10 h [6]: 158 ng/mL | half-life (beagle, dog, po, 5 mg/kg, t1/2 (hr), oral half-life): ~3.4 h
